Laboratory results: US9700638B2, “Near infrared label and methods of use thereof” (priority 2013, dated 2017)
Read-outs that look alike come from different tables or passages of the source.

What was measured:
[1] = reference chromophores with known molar absorptivity; cited from earlier work
[2] = Light absorption / molar absorptivity of DDAO and 7-aminoDDAO derivatives; format: physicochemical; conditions: for light absorption maximum: FIG. 4, 50% MeOH
Experimental: (§1) The molar extinction of 7-aminoDDAO (55 000 M-1 cm-1) was determined by the attachment of reference chromophores with known molar absorptivity (Table 1). Light absorption spectra of the labeled caspofungin and posaconazole derivatives were close to superposition of those for the 7-(4-aminobutyl)amino-DDAO and the corresponding drugs, which is illustrated in FIG. 4 on the example of posaconazole derivative. […] Thus, excitation and emission maxima for DDAO were 653 nm and 660 nm correspondingly, while for 7-(4-aminobutyl)amino-DDAO they shifted to 671 nm and 679 nm correspondingly. […] Remarkably, the shape of the excitation spectrum curve for ionized form of DDAO was the same in 50% and 100% methanol.

[3] = Fluorescence spectra, relative brightness and quantum yield in various solvents; format: physicochemical; design: brightness: unit not given here; conditions: for QY (50% MeOH), quantum yield / RB (50% MeOH), relative brightness / QY (MeOH), quantum yield / RB (MeOH), relative brightness / QY (H20), quantum yield / RB (H2O), relative brightness: 1 μM; for increase of light emission in 50% methanol compared to water: 50% methanol vs water; for QY (H20), quantum yield / RB (H2O), relative brightness: H2O; for increase of emission in 100% methanol compared to 50% methanol: 100% methanol vs 50% methanol
Experimental: as §1
However, posaconazole derivative behaved differently. […] The suppression of the fluorophore light emission in posaconazole derivative is likely due to the presence of extended light-absorbing moiety that can stack to the fluorophore, causing contact quenching (FIG. 7). […] in fluorescence is expected upon interaction of the labeled drug with its cellular target, whereby stacking interactions of the fluorophore with the drug moiety have to be destroyed (FIG. 7B). This beneficial “signaling” effect is expected to greatly increase the contrast of imaging by minimizing the background signal of non-bound compound, which remains “dark”.
Table 2 illustrates light emission properties of DDAO-based diagnostic probes and reference compounds, and presents the data on quantum yield and brightness for 7-aminoDDAO compound at various conditions. These parameters were determined using a reference fluorophore Cy5.5, (which has the excitation and emission maxima nearly identical to those for 7-aminoDDAO) and published data for original DDAO fluorophore. […] This was perhaps due to higher light absorptivity and higher quantum yield of the amino-derivative. The difference in brightness further increased in 50% methanol (21 000 and 9000 correspondingly).

[4] = Chemical and photochemical stability of the fluorophore; format: physicochemical
Candida albicans = assay: Imaging of fungal infection in mice kidneys by whole-body fluorescence imaging; format: in vivo
Experimental: Mice were infected via intravenous inoculation with 5*10^5 CFU of wild type Candida albicans and an infection that occurs most prominently in the kidneys. After 48 hours post infection, a fixed concentration of 0.12 ug/mL of CSF-DDAO is added via tail vein injection at 0, 2, 4 and 8 hours to assess the optimal time for visualization of the infection. At each time point, the mice were imaged in a non-invasive whole-body animal imaging system to detect fluorescence energy. Animals infected with Candida albicans show proliferation of the fungal infection in the kidneys after 48 hours. […] Maximum labeling occurred at 8 hours. […] At the same time no signal was detected in uninfected and/or untreated organs.

[5] = listed as 7-(4-aminobutyl)amino-DDAO

| Compound | Molar absorption for attached compounds [1] | molar absorbance [2] | ε [2] | light absorption maximum [2] | brightness [3] | pH dependence of the fluorophore [3] | QY (50% MeOH), quantum yield [3] | RB (50% MeOH), relative brightness [3] | increase of light emission in 50% methanol compared to water [3] | QY (MeOH), quantum yield ([3]; 100% MeOH) | RB (MeOH), relative brightness ([3]; 100% MeOH) | QY (H20), quantum yield [3] | RB (H2O), relative brightness [3] | increase of emission in 100% methanol compared to 50% methanol [3] | also measured |
| --- | --- | --- | --- | --- | --- | --- | --- | --- | --- | --- | --- | --- | --- | --- | --- |
| Cc1cc(C)n2c1C=C1C=CC(CCC(=O)O)=[N+]1[B-]2(F)F [BODIPY-FL] | 82,000 M^−1cm^−1 | – | – | – | – | – | – | – | – | – | – | – | – | – | – |
| CC1(C)C2=C(Cl)C(=O)C(Cl)=CC2=Nc2ccc(NCCCCN)cc21 [DDAO NH2, DDAO—NH—(CH2)4—NH2] | – | 53,000 | 53,000 M^−1cm^−1 | 673 nm | 6,000 | pH-independent | 0.40 | 21,000 | ca. 2.5 fold | 0.25 | 13,000 | 0.19 | 10,000 | – | Calculated molar absorption for DDAO residue ([2]; attached compound BODIPY-FL): 70,000 M^−1cm^−1; Calculated molar absorption for DDAO residue ([2]; attached compound DNP): 32,000 M^−1cm^−1; Calculated molar absorption for DDAO residue ([2]; attached compound Posaconazole): 59,000 M^−1cm^−1; Calculated molar absorption for DDAO residue, Average ([2]; average over three attached chromophores): 53,000 M^−1cm^−1; molar extinction ([2]; determined by attachment of reference chromophores): 55 000 M-1 cm-1; long-wavelength emission range [3]: 640-700 nm; RB (50% MeOH), relative brightness ([3]; listed as 7-aminoDDAO): 21 000; emission maximum in 100% MeOH ([3]; 100% MeOH): 670 nm; excitation maximum in 100% MeOH ([3]; 100% MeOH): 620 nm; drop of light emission intensity in 100% MeOH ([3]; 100% MeOH vs 50% methanol): 1.7 fold; RB (MeOH), relative brightness ([3]; 100% MeOH, listed as 7-aminoDDAO): 13 000; RB (H2O), relative brightness ([3]; listed as 7-aminoDDAO): 10 000; emission maximum [3, 5]: 679 nm; excitation maximum [3, 5]: 671 nm; emission maximum ([3]; listed as 7-aminoDDAO): 680 nm; emission maximum ([3]; listed as 7-aminoDDAP): 680 nm; excitation maximum ([3]; listed as 7-aminoDDAP): 670 nm; chemical and photochemical stability [4]: chemically and photochemically stable |
| CC1(C)C2=C(Cl)C(=O)C(Cl)=CC2=Nc2ccc(O)cc21 [DDAO, 7-hydroxy-9H-(1,3-dichloro-9,9-dimethylacridin-2-one), reference compound] | – | 48,000 | 48,000 M^−1cm^−1 | 653 nm | 3,600 | pH-dependent | 0.19 | 9000 | – | 0.25 | 12 000 | 0.125 | 6 000 | 1.3 fold | emission maximum [3]: 660 nm; excitation maximum [3]: 653 nm; RB (50% MeOH), relative brightness ([3]; listed as DDAO (pH 9.0)): 9,000; RB (MeOH), relative brightness ([3]; 100% MeOH, listed as DDAO (pH 9.0)): 12,000; RB (H2O), relative brightness ([3]; listed as DDAO (pH 9.0)): 6,000 |
| CC[C@@H]([C@H](C)O)n1ncn(-c2ccc(N3CCN(c4ccc(OC[C@@H]5CO[C@@](Cn6cncn6)(c6ccc(F)cc6F)C5)cc4)CC3)cc2)c1=O [Posaconazole] | 34,000 M^−1cm^−1 | – | – | – | – | – | – | – | – | – | – | – | – | – | – |
| DDAO—NH—(CH2)4—NCS-Caspofungin [DDAO Casp] | – | – | 53,000 M^−1cm^−1 | – | – | – | 0.26 | 13,800 | 2 fold | 0.42 | 22,000 | 0.11 | 6,000 | 1.3 fold | fluorescent signal of the infected organ (kidney) (Candida albicans; C. albicans infected mice kidney, FIG. 8): bright fluorescent signal; labeling of cells in the target organs over time (Candida albicans; infected mice, whole body imaging at 0, 2, 4 and 8 hours): progressive labeling of cells in the target organs over time; time of maximum labeling after probe injection (Candida albicans; mice 48 h post i.v. infection with C. albicans, 0.12 ug/mL via tail vein, whole body imaging): 8 h; accumulation in the kidneys in the absence of infection (Candida albicans; uninfected mice): did not accumulate in the kidneys |
